Test results as given in patent US12144864B2, “Tubulysins and protein-tubulysin conjugates” (Regeneron Pharmaceuticals, Inc., priority 2018, dated 2024).
Like-named read-outs stand apart in the source and are kept apart here.

Assays:
[1] = tested on: C4-2 cells; test: Cell-based killing assay of payloads (CellTiter-Glo), C4-2 cells; parameters: species or system human; details: 5-day incubation; for IC50: Homo sapiens, C4-2, 120 h, average ± SD where replicates; for C4-2 % Kill: at maximum concentration tested (100 − % viable cells)
Description: (§1) To test the ability of the disclosed tubulysin payloads to kill human cell lines, an in vitro cytotoxicity assay was performed. In vitro cytotoxicity of the disclosed payloads, as well as reference compounds, were evaluated using the CellTiter-Glo Assay Kit (Promega, Cat #G7573), in which the quantity of ATP present is used to determine the number of viable cells in culture. For the assay, C4-2, HEK293, or T47D cells were seeded at 4000 cells/well on Nunclon white 96-well plates in complete growth medium (DME high glucose:Ham's F12 at 4:1, 10% FBS, 100 units/ml Penicillin, 100 ug/ml streptomycin, 53 ug/ml glutatmine, 10 ug/ml insulin, 220 ng/ml biotin, 12.5 pg/ml T3, 12.5 ug/ml Adenine, 4 ug/ml transferrin for C42 cells; DME high glucose, 10% FBS, 100 units/ml Penicillin, 100 ug/ml streptomycin, 53 ug/ml glutatmine for HEK293; RPMI, 10% FBS, 100 units/ml Penicillin, 100 ug/ml streptomycin, 53 ug/ml glutatmine, 10 ug/ml insulin, 10 mM HEPEs, 200 nM Sodium Pyruvate for T47D cells) and grown overnight at 37° C. in 5% CO2. For cell viability curves, 1:3 serially diluted payloads were added to the cells at final concentrations ranging from 100 nM to […], including a no treatment control group, and were then incubated for 5 days. After the 5-day incubation, cells were incubated at room temperature with 100 μL of CellTiter-Glo reagents for 10 minutes. Relative luminescence units (RLU) were determined on a Victor plate reader (PerkinElmer). The IC50 values were determined from a four-parameter logistic equation over a 10-point response curve (GraphPad Prism). All IC50 values are expressed in molar (M) concentration. The percent cell killing (% kill) at the maximum concentration tested was estimated from the following formula (100−% viable cells). Averages±standard deviation (SD) are included where replicate experiments were performed.

[2] = tested on: HL60/MX2 cells; test: Cytotoxicity in panel of MDR cell lines, HL60/MX2 (72 h and 144 h); type: cell-based, human; details: for IC50: Homo sapiens
Description: as §1
(§2) To further test the ability of the disclosed tubulysin payloads, a cytotoxicity assay was performed using a panel of multidrug resistant (MDR) cell lines. In vitro cytotoxicity of the disclosed payloads as well as reference compounds were similarly evaluated as described above except using HCT-15 cells, a colorectal carcinoma cell line; H69AR, a doxorubicin resistant MDR derivative of the small cell lung cancer carcinoma cell line NCI-H69; MES-SA/MX2, a mitoxantrone resistant MDR derivative of the uterine sarcoma cell line MES-SA; and HL60/MX2, a mitoxantrone resistant MDR derivative of the acute promyelocytic leukemia cell line HL60. In these assays, cytotoxicity was evaluated in normal growth media (RPMI, 10% FBS, 100 units/ml Penicillin, 100 ug/ml streptomycin, and 53 ug/ml glutatmine for HCT-15 and HL60/MX2; RPMI, 20% FBS, 100 units/ml Penicillin, 100 ug/ml streptomycin, and 53 ug/ml glutatmine for H69-AR; Waymouths's:McCoy's (1:1), 10% FBS, 100 units/ml Penicillin, 100 ug/ml streptomycin, and 53 ug/ml glutatmine for MES-SA/MX2) with 1000 cells per well following 72 h and 144 h incubation with payloads.

[3] = tested on: HCT-15 cells; test: Cytotoxicity in panel of MDR cell lines, HCT-15 (72 h and 144 h); type: cell-based, human; details: for IC50: Homo sapiens
Description: as §1, §2

[4] = tested on: HCT15 cells; test: cells; type: cell-based, human; details: HCT15 cells; for HCT-15 + verapamil % Kill / HCT-15 % Kill: maximum % cell killing
Description: as §1
In vitro cytotoxicity of the disclosed payloads as well as reference compounds were evaluated similarly as described above except using 1000 HCT15 cells, a colorectal carcinoma cell line, in growth medium (RPMI, 10% FBS, 100 units/ml Penicillin, 100 ug/ml streptomycin, 53 ug/ml glutatmine) with or without 5 ug/mL of Verapamil.

[5] = tested on: MES-SA/MX2 cells; test: Cytotoxicity in panel of MDR cell lines, MES-SA/MX2 (72 h and 144 h); type: cell-based, human; details: for IC50: Homo sapiens
Description: as §1, §2

[6] = tested on: H69AR cells; test: Cytotoxicity in panel of MDR cell lines, H69AR (72 h and 144 h); type: cell-based, human; details: for IC50: Homo sapiens
Description: as §1, §2

[7] = 72 h incubation, read-out: HL60/MX2 IC50 72 h
[8] = 144 h incubation, read-out: HL60/MX2 IC50 144 h
[9] = 72 h incubation, read-out: HCT-15 IC50 72 h
[10] = 144 h incubation, read-out: HCT-15 IC50 144 h
[11] = with 5 ug/mL Verapamil, read-out: HCT-15 + verapamil IC50
[12] = Homo sapiens, HCT-15, without Verapamil, read-out: HCT-15 IC50
[13] = 72 h incubation, read-out: MES-SA/MX2 IC50 72 h
[14] = 144 h incubation, read-out: MES-SA/MX2 IC50 144 h
[15] = 72 h incubation, read-out: H69AR IC50 72 h
[16] = 144 h incubation, read-out: H69AR IC50 144 h

Row | Structure (SMILES) | HL60/MX2 % Kill 72 h ([2]; 72 h incubation) [%] | HL60/MX2 % Kill 144 h ([2]; 144 h incubation) [%] | IC50 [2, 7] [nM] | IC50 [2, 8] [nM] | HCT-15 % Kill 72 h ([3]; 72 h incubation) [%] | HCT-15 % Kill 144 h ([3]; 144 h incubation) [%] | IC50 [3, 9] [nM] | IC50 [3, 10] [nM] | HCT-15 + verapamil % Kill ([4]; with 5 ug/mL Verapamil) [%] | IC50 [4, 11] [nM] | HCT-15 % Kill ([4]; without Verapamil) [%] | IC50 [4, 12] [nM] | MES-SA/MX2 % Kill 72 h ([5]; 72 h incubation) [%] | MES-SA/MX2 % Kill 144 h ([5]; 144 h incubation) [%] | IC50 [5, 13] [nM] | IC50 [5, 14] [nM] | H69AR % Kill 72 h ([6]; 72 h incubation) [%] | H69AR % Kill 144 h ([6]; 144 h incubation) [%] | IC50 [6, 15] [nM] | IC50 [6, 16] [nM] | other results
1 | C#CCCCON(C(=O)[C@@H](NC(=O)[C@H]1CCCCN1C)[C@@H](C)CC)[C@H](C[C@@H](OC(=O)NCC)c1nc(C(=O)N[C@@H](Cc2ccc(NC(C)=O)cc2)CC(C)(C)C(=O)O)cs1)C(C)C [VIg, (4S)-5-(4-Acetamidophenyl)-4-({2-[(1R,3R)-1-[(ethylcarbamoyl)oxy]-4-methyl-3-[(2S,3S)-3-methyl-2-{[(2R)-1-methylpiperidin-2-yl]formamido}-N-(pent-4-yn-1-yloxy)pentanamido]pentyl]-1,3-thiazol-4-yl}formamido)-2,2-dimethylpentanoic acid] |  |  |  |  |  |  |  |  |  |  |  |  |  |  |  |  |  |  |  |  | IC50 [1]: > 100 nM; C4-2 % Kill [1]: 10.9%
2 | CCCCCCN(C(=O)[C@@H](NC(=O)[C@H]1CCCCN1C)[C@@H](C)CC)[C@H](C[C@@H](OC(C)=O)c1nc(C(=O)N[C@@H](Cc2ccc(N)cc2)CC(C)(C)C(=O)O)cs1)C(C)C [IVq, (S)-4-(2-((1R,3R)-1-Acetoxy-3-((2S,3S)—N-hexyl-3-methyl-2-((R)-1-methylpiperidine-2-carboxamido)pentanamido)-4-methylpentyl)thiazole-4-carboxamido)-5-(4-aminophenyl)-2,2-dimethylpentanoic acid] | 98.6 | 100 | < 0.015 | < 0.015 | 98 | 99.8 | < 0.015 | 0.0277 | 98.6 ± 0.7 | 0.0225 | 98.4 ± 0.8 | 0.0423 | 99.4 | 100 | 0.0589 | 0.105 | 96.9 | 99.5 | 0.0642 | 0.128 | 
3 | CC[C@H](C)[C@H](NC(=O)[C@H]1CCCCN1C)C(=O)N(CCCCc1cn(CC(=O)O)nn1)[C@H](C[C@@H](OC(C)=O)c1nc(C(=O)N[C@@H](Cc2ccc(N)cc2)CC(C)(C)C(=O)O)cs1)C(C)C [IVm, (S)-4-(2-((1R,3R)-1-acetoxy-3-((2S,3S)—N-(4-(1-(carboxymethyl)-1H-1,2,3-triazol-4-yl)butyl)-3-methyl-2-((R)-1-methylpiperidine-2-carboxamido)pentanamido)-4-methylpentyl)thiazole-4-carboxamido)-5-(4-aminophenyl)-2,2-dimethylpentanoic acid] |  |  |  |  |  |  |  |  |  |  |  |  |  |  |  |  |  |  |  |  | IC50 [1]: > 100 nM; C4-2 % Kill [1]: 8.9%
4 | [2H]c1cc(C[C@@H](CC(C)(C)C(=O)O)NC(=O)c2csc([C@@H](C[C@H](C(C)C)N(CCCCC#C)C(=O)[C@@H](NC(=O)[C@H]3CCCCN3C)[C@@H](C)CC)OC(C)=O)n2)cc([2H])c1N [IVr, (S)-4-(2-((1R,3R)-1-Acetoxy-3-((2S,3S)—N-(hex-5-yn-1-yl)-3-methyl-2-((R)-1-methylpiperidine-2-carboxamido)pentanamido)-4-methylpentyl)thiazole-4-carboxamido)-5-(4-aminophenyl-3,5-d2)-2,2-dimethylpentanoic acid] | 98.7 | 100 | < 0.015 | < 0.015 | 98 | 99.7 | 0.0401 | 0.0621 | 99 | 0.0624 | 99.1 | 0.0893 | 99.1 | 100 | 0.151 | 0.176 | 96.7 | 99 | 0.137 | 0.211 | 
5 | CCCCCCN(C(=O)[C@@H](NC(=O)[C@H]1CCCCN1C)[C@@H](C)CC)[C@H](C[C@@H](OC(C)=O)c1nc(C(=O)N[C@@H](Cc2ccc(F)cc2)CC(C)(C)C(=O)O)cs1)C(C)C [VIII, (4S)-4-({2-[(1R,3R)-1-(Acetyloxy)-3-[(2S,3S)—N-hexyl-3-methyl-2-{[(2R)-1-methylpiperidin-2-yl]formamido}pentanamido]-4-methylpentyl]-1,3-thiazol-4-yl}formamido)-5-(4-fluorophenyl)-2,2-dimethylpentanoic acid] |  |  |  |  |  |  |  |  |  |  |  |  |  |  |  |  |  |  |  |  | IC50 ([4]; with 5 ug/mL Verapamil, read-out: HCT-15 + verapamil IC50 (value in brackets)): 0.106 nM; IC50 ([4]; Homo sapiens, HCT-15, without Verapamil, read-out: HCT-15 IC50 (value in brackets)): 0.295 nM
6 | C#CCCCCN(C(=O)[C@@H](NC(=O)[C@H]1CCCCN1C)[C@@H](C)CC)[C@H](C[C@@H](OC(C)=O)c1nc(C(=O)N[C@@H](Cc2ccccc2)CC(C)(C)C(=O)O)cs1)C(C)C [IVb, (4S)-4-({2-[(1R,3R)-1-(Acetyloxy)-3-[(2S,3S)—N-(hex-5-yn-1-yl)-3-methyl-2-{[(2R)-1-methylpiperidin-2-yl]formamido}pentanamido]-4-methylpentyl]-1,3-thiazol-4-yl}formamido)-2,2-dimethyl-5-phenylpentanoic acid] |  |  |  |  |  |  |  |  | 98.1 | 0.103 | 98 | 0.151 |  |  |  |  |  |  |  |  | 
7 | CCCCCCN(C(=O)[C@@H](NC(=O)[C@H]1CCCCN1C)[C@@H](C)CC)[C@H](C[C@@H](OC(C)=O)c1nc(C(=O)NC(Cc2ccc(N)c(O)c2)CC(C)(C)C(=O)O)cs1)C(C)C (stereo partly drawn) [IVx, 4-(2-((1R,3R)-1-Acetoxy-3-((2S,3S)—N-hexyl-3-methyl-2-((R)-1-methylpiperidine-2-carboxamido)pentanamido)-4-methylpentyl)thiazole-4-carboxamido)-5-(4-amino-3-hydroxyphenyl)-2,2-dimethylpentanoic acid] | 96.9 | 100 | 0.955 | 0.77 | 84.4 | 91 | 34.5 | 84.8 |  |  |  |  | 62.1 | 33.6 | > 100 | > 100 | 48.7 | 38 | > 100 | > 100 | 
